Data published in PubChem BioAssay (NCI).
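Tested at 5 concentrations; 48 h exposure; 96-well plates; endpoints linearly interpolated, else capped at highest concentration. At the TGI there is no net growth.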

Columns and labels:
Test in all cases: growth of human tumour cells (NCI), 48 h
[1] = tested on: HCT-116 colon
[2] = tested on: BT-549 breast
[3] = tested on: RPMI-8226 leukemia
[4] = tested on: 786-0 renal
[5] = tested on: A549 NSCLC
[6] = tested on: RXF 393 renal
[7] = tested on: OVCAR-3 ovarian
[8] = tested on: OVCAR-5 ovarian
[9] = tested on: HS 578T breast
[10] = tested on: MOLT-4 leukemia
[11] = tested on: HOP-62 NSCLC
[12] = tested on: SN12C renal
[13] = tested on: PC-3 prostate
[14] = tested on: NCI-H226 lung
[15] = tested on: SK-MEL-2 melanoma
[16] = tested on: MCF7 breast
[17] = tested on: CAKI-1 renal
[18] = tested on: M14 melanoma
[19] = tested on: ACHN renal
[20] = tested on: SF-539 CNS
[21] = tested on: IGROV1 ovarian
[22] = tested on: TK-10 renal
[23] = tested on: NCI-H460 lung
[24] = tested on: HL-60(TB) leukemia
[25] = tested on: SW-620 colon
[26] = tested on: OVCAR-4 ovarian
[27] = tested on: COLO 205 colon
[28] = tested on: MDA-MB-435
[29] = tested on: DU-145 prostate
[30] = tested on: SK-MEL-28 melanoma
[31] = tested on: UACC-257 melanoma
[32] = tested on: MDA-N
[33] = tested on: A498 renal
[34] = tested on: HOP-92 NSCLC
[35] = tested on: HCC-2998 colon
[36] = tested on: U251 CNS
[37] = tested on: SR leukemia
[38] = tested on: NCI-H522 lung
[39] = tested on: SK-OV-3 ovarian
[40] = tested on: SNB-19 CNS
[41] = tested on: KM12 colon
[42] = tested on: K-562 leukemia
[43] = tested on: SF-295 CNS
[44] = tested on: NCI/ADR-RES ovarian
[45] = tested on: LOX IMVI melanoma
[46] = tested on: EKVX NSCLC
[47] = tested on: HT29 colon
[48] = tested on: CCRF-CEM leukemia
[49] = tested on: NCI-H23 lung
[50] = tested on: MDA-MB-231 breast
[51] = tested on: MALME-3M melanoma
[52] = tested on: SK-MEL-5 melanoma
[53] = tested on: SNB-75 CNS
[54] = tested on: SF-268 CNS
[55] = tested on: UO-31 renal
[56] = tested on: UACC-62 melanoma
[57] = tested on: HCT-15 colon
[58] = tested on: T-47D breast
[59] = tested on: OVCAR-8 ovarian

Measured: TGI

C=C(Cl)C(C)(Cl)CCC(Cl)C(C)(C)Cl (stereo unspecified)
61.3 µM: [37]
56.3 µM: [38]
61.2 µM: [45]
83.3 µM: [50]
> 100 µM: [1] | [2] | [4] | [5] | [6] | [7] | [8] | [9] | [11] | [12] | [13] | [14] | [15] | [16] | [17] | [18] | [19] | [20] | [21] | [22] | [23] | [24] | [25] | [26] | [27] | [28] | [29] | [30] | [31] | [32] | [33] | [34] | [35] | [36] | [39] | [40] | [41] | [42] | [43] | [44] | [46] | [47] | [48] | [49] | [51] | [52] | [53] | [54] | [55]
48.7 µM: [3]
66.1 µM: [10]

CON(C)C(=O)C(Cc1ccccc1)NC(=O)OC(C)(C)C (stereo unspecified)
> 100 µM: [1] | [2] | [3] | [4] | [56] | [5] | [6] | [7] | [8] | [9] | [10] | [11] | [12] | [13] | [14] | [57] | [16] | [18] | [19] | [20] | [21] | [22] | [23] | [24] | [25] | [58] | [27] | [28] | [29] | [30] | [31] | [32] | [33] | [34] | [35] | [36] | [37] | [39] | [40] | [41] | [42] | [43] | [44] | [46] | [47] | [48] | [59] | [49] | [51] | [52] | [53] | [54] | [55]

O=[N+]([O-])C(/C(Cl)=C(/Cl)N1CCCCC1)=C1\NCCO1
> 100 µM: [1] | [2] | [3] | [4] | [56] | [5] | [7] | [8] | [9] | [10] | [11] | [12] | [13] | [14] | [15] | [57] | [16] | [17] | [18] | [19] | [20] | [23] | [25] | [26] | [58] | [27] | [28] | [29] | [30] | [31] | [32] | [33] | [35] | [36] | [39] | [40] | [41] | [43] | [44] | [46] | [47] | [48] | [59] | [49] | [50] | [51] | [53] | [54] | [55]

Cc1cc(S(=O)(=O)Nc2nc(N)n(-c3cnc4ccccc4n3)n2)c(S)cc1Cl
> 100 µM: [1] | [2] | [4] | [56] | [5] | [6] | [7] | [8] | [9] | [11] | [12] | [13] | [14] | [15] | [57] | [16] | [17] | [18] | [19] | [20] | [21] | [22] | [23] | [24] | [25] | [26] | [58] | [27] | [28] | [29] | [30] | [31] | [32] | [33] | [35] | [36] | [38] | [39] | [40] | [41] | [42] | [44] | [45] | [46] | [47] | [48] | [59] | [50] | [51] | [52] | [53] | [54] | [55]
89.2 µM: [34]
